Laboratory results as given in ChEMBL document CHEMBL5465560, “Selectivity Literature for EUbOPEN Chemogenomic Library” (2024).

Legend:
SRSF protein kinase 1 = SRSF protein kinase 1 (Homo sapiens, UniProt Q96SB4); settings: at 10 µM
[1] = target: Polycomb protein SUZ12 (Homo sapiens) (UniProt Q15022); assay: Selectivity interaction (Methyltransferase screen (Scintillation proximity assays)) EUB0000255b SUZ12
[2] = target: Calcium/calmodulin-dependent protein kinase type 1D (Homo sapiens) (UniProt Q8IU85); assay: Selectivity interaction (KinomeScan (DiscoverX)) EUB0000092b CAMK1D; settings: at 10 µM
Focal adhesion kinase 1 = Focal adhesion kinase 1 (Homo sapiens, UniProt Q05397); assay: Selectivity interaction (KinomeScan (DiscoverX)) EUB0000092b PTK2; settings: at 10 µM
[3] = target: Myosin light chain kinase family member 4 (Homo sapiens, UniProt Q86YV6); assay: Selectivity interaction (Enzymatic assay) EUB0001550a MYLK4
[4] = target: Dual specificity protein kinase CLK2 (Homo sapiens, UniProt P49760); assay: Selectivity interaction (ProQinase) EUB0000171b CLK2
[5] = target: Serine/threonine-protein kinase mTOR (Homo sapiens, UniProt P42345); assay: Selectivity interaction (KinomeScan (DiscoverX)) EUB0001079a MTOR; settings: at 1 µM
[6] = target: BDNF/NT-3 growth factors receptor (Homo sapiens) (UniProt Q16620); assay: Selectivity interaction (KinomeScan (DiscoverX)) EUB0001079a NTRK2; settings: at 1 µM
[7] = target: Serine/threonine-protein kinase pim-3 (Homo sapiens) (UniProt Q86V86); assay: Selectivity interaction (KinomeScan (DiscoverX)) EUB0001079a PIM3; settings: at 1 µM
[8] = target: Cyclin-dependent kinase 17 (Homo sapiens) (UniProt Q00537); assay: Selectivity interaction (KinomeScan (DiscoverX)) EUB0000666a CDK17; settings: at 10 µM
[9] = target: Wee1-like protein kinase 2 (Homo sapiens) (UniProt P0C1S8); assay: Selectivity interaction (KinomeScan (DiscoverX)) EUB0000666a WEE2; settings: at 10 µM
[10] = target: Transcription intermediary factor 1-alpha (Homo sapiens) (UniProt O15164); assay: Selectivity interaction (Bromodomain panel (DSF asssay)) EUB0000270b TRIM24
[11] = target: Cyclin-dependent kinase 18 (Homo sapiens) (UniProt Q07002); assay: (§1) Selectivity interaction (ActivX KiNativ screen (kinase selectivity in THP-1 cell lysates)) EUB0000639a CDK18; assay type: subcellular; settings: lysate, at 1 µM
[12] = target: Cyclin-dependent kinase 18 (Homo sapiens) (UniProt Q07002); assay: as §1; assay type: subcellular; settings: lysate, at 0.04 µM
[13] = target: Serine/threonine-protein kinase 32C (Homo sapiens) (UniProt Q86UX6); assay: Selectivity interaction (ActivX KiNativ screen (kinase selectivity in THP-1 cell lysates)) EUB0000639a STK32C; assay type: subcellular; settings: lysate
[14] = target: Tyrosine-protein kinase Lck (Homo sapiens, UniProt P06239); assay: Selectivity interaction (Panel of kinases, GPCRs, ion channels and transporters (enzymatic assay)) EUB0000223bCl LCK
[15] = target: T1, Dual specificity mitogen-activated protein kinase kinase 4 (Homo sapiens) (UniProt P45985); assay: Selectivity interaction (KinomeScan (DiscoverX)) EUB0000607a MAP2K4; settings: at 10 µM
T1 sequence (whole entry): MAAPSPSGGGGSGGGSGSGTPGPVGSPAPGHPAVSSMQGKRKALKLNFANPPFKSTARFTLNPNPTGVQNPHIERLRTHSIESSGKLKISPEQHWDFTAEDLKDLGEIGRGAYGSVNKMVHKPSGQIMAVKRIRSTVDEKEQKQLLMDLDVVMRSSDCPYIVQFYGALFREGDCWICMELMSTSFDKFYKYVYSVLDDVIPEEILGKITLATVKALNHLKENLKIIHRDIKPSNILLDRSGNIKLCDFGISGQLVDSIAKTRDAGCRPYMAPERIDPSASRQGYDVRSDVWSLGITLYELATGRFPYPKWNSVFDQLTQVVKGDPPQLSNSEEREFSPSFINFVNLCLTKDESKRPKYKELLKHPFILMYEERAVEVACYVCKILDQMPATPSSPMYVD

[16] = target: Macrophage-stimulating protein receptor (Homo sapiens, UniProt Q04912); assay: Selectivity interaction (SelectScreen profiling (Invitrogen)) EUB0000607a MST1R; settings: at 2 µM
[17] = target: Glycogen synthase kinase-3 beta (Homo sapiens, UniProt P49841); assay: Selectivity interaction (KinomeScan (DiscoverX)) EUB0000695a GSK3B; settings: at 100 nM
[18] = target: T2, Dual specificity protein kinase TTK (Homo sapiens) (UniProt P33981); assay: Selectivity interaction (Kinase panel (literature)) EUB0001199aCl TTK; settings: at 1 µM
T2 sequence (whole entry): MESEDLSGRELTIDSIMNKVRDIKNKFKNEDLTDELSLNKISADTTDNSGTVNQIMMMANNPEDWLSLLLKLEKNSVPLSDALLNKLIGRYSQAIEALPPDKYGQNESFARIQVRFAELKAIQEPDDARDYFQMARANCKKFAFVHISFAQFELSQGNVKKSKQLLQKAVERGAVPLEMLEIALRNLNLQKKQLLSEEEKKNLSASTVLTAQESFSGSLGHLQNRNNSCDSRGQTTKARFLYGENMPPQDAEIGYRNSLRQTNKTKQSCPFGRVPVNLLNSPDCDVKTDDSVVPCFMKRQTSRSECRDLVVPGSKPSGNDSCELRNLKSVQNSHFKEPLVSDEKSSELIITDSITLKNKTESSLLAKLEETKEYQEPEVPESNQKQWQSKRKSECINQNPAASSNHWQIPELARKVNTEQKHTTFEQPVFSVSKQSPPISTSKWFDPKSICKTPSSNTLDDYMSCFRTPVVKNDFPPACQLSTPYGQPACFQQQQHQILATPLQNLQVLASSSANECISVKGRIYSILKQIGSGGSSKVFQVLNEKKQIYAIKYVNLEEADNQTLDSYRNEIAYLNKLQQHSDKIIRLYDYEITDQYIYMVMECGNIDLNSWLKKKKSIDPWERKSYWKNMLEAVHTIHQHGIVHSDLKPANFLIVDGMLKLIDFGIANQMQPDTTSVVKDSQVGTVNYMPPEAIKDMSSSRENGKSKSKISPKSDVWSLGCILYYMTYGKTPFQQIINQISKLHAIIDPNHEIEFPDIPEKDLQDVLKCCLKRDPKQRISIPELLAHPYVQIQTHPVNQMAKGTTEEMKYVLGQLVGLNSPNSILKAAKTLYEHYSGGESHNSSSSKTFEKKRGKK

[19] = target: Protein-tyrosine kinase 6 (Homo sapiens, UniProt Q13882); assay: Selectivity interaction (KinomeScan (DiscoverX)) EUB0000618a PTK6; settings: at 10 µM
[20] = target: Serine/threonine-protein kinase 24 (Homo sapiens) (UniProt Q9Y6E0); assay: Selectivity interaction (ActivX KiNativ screen (ex vivo kinase selectivity in human PBMCs)) EUB0001619a STK24; assay type: cell-based; settings: PBMC, at 1 µM
Sequence of Serine/threonine-protein kinase 24 (Homo sapiens) (Q9Y6E0 whole entry, looked up): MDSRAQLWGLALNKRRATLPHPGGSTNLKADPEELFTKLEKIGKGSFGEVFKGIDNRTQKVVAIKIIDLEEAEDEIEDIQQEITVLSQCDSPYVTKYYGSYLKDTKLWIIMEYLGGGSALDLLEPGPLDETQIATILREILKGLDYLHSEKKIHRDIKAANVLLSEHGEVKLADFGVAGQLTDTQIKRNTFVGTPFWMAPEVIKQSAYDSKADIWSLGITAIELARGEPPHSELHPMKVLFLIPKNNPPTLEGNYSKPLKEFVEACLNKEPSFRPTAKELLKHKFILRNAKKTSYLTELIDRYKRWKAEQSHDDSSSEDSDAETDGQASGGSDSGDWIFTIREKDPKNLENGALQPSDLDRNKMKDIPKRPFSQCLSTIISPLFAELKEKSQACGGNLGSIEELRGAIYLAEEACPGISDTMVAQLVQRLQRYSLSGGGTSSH

Sequence of Serine/threonine-protein kinase 32C (Homo sapiens) (Q86UX6 whole entry): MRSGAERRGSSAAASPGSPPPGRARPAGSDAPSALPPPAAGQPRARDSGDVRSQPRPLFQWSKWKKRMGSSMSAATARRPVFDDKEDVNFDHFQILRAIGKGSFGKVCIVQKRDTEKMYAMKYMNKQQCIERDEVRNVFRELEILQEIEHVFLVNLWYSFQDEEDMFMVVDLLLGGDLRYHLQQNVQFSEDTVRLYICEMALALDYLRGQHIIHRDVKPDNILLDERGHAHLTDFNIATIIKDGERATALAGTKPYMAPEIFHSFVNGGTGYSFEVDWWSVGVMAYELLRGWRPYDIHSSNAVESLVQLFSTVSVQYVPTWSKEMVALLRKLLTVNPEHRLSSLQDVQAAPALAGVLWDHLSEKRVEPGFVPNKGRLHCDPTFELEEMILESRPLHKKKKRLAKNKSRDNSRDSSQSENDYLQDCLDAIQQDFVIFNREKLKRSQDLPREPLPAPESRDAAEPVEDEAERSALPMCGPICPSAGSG
Sequence of Cyclin-dependent kinase 18 (Homo sapiens) (Q07002 whole entry): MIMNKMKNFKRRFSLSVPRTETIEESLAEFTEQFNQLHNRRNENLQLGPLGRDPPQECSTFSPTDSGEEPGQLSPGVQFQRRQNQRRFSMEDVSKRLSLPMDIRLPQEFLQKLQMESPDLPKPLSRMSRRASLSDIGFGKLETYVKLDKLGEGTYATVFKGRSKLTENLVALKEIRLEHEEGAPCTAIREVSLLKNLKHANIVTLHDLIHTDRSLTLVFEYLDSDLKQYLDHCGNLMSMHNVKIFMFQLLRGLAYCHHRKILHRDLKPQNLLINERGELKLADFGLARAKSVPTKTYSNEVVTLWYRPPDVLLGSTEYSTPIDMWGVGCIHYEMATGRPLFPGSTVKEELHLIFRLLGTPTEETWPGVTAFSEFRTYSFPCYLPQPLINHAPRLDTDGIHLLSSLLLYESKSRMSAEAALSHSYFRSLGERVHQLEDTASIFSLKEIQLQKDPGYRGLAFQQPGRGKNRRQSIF
Sequence of Dual specificity protein kinase CLK2 (P49760 whole entry, looked up): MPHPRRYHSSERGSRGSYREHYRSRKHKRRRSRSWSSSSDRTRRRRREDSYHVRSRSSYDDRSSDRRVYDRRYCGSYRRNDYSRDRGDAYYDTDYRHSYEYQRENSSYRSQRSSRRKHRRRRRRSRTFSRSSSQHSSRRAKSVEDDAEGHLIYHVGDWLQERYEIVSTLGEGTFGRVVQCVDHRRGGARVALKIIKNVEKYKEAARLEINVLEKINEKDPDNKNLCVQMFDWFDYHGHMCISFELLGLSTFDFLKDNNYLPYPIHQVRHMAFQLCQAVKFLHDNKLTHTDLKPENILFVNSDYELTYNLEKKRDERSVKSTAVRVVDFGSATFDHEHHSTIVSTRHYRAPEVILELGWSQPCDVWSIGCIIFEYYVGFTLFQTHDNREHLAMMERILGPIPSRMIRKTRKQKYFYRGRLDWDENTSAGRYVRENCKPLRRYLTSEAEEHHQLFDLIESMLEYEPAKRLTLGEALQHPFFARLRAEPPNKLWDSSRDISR
Sequence of Polycomb protein SUZ12 (Homo sapiens) (Q15022 whole entry): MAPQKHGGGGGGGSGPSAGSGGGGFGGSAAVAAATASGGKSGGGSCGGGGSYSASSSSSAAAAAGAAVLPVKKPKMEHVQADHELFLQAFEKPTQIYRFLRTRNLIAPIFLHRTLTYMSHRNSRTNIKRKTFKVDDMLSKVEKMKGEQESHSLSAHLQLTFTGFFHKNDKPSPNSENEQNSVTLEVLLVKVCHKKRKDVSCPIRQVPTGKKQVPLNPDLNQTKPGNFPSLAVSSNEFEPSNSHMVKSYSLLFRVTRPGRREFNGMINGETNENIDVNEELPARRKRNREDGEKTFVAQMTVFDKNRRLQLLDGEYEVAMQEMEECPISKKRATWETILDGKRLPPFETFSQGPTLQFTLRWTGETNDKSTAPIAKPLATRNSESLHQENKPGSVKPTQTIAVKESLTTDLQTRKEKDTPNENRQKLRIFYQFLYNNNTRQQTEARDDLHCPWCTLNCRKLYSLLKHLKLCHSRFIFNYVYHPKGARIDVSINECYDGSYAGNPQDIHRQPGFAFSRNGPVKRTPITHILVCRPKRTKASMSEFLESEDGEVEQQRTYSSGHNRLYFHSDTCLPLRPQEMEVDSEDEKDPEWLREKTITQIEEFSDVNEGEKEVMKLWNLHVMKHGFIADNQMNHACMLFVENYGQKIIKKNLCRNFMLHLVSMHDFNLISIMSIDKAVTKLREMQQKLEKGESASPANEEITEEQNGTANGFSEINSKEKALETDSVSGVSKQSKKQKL
Sequence of Calcium/calmodulin-dependent protein kinase type 1D (Homo sapiens) (Q8IU85 whole entry, looked up): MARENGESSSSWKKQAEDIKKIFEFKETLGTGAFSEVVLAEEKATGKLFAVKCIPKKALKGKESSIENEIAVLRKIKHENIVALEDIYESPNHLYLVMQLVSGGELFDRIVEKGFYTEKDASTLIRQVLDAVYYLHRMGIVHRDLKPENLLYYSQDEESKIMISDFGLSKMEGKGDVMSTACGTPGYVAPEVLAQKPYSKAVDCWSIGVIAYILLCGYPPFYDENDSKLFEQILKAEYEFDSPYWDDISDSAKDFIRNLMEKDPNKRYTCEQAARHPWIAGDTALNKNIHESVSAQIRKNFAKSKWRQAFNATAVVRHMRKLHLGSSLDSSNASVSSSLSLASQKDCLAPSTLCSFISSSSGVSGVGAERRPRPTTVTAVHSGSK
Sequence of Protein-tyrosine kinase 6 (Q13882 whole entry, looked up): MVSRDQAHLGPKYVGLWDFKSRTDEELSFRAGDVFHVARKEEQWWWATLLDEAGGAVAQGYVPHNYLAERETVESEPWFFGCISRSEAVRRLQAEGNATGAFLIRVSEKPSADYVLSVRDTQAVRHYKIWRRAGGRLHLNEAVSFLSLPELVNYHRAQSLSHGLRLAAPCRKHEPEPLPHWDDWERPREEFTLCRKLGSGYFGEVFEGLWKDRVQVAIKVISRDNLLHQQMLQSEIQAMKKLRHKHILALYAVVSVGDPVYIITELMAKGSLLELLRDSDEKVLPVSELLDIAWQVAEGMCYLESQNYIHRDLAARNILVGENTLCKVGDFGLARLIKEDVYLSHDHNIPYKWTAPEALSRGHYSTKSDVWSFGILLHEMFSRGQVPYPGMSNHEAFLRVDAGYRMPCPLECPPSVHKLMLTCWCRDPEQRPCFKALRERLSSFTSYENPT
Sequence of SRSF protein kinase 1 (Q96SB4 whole entry): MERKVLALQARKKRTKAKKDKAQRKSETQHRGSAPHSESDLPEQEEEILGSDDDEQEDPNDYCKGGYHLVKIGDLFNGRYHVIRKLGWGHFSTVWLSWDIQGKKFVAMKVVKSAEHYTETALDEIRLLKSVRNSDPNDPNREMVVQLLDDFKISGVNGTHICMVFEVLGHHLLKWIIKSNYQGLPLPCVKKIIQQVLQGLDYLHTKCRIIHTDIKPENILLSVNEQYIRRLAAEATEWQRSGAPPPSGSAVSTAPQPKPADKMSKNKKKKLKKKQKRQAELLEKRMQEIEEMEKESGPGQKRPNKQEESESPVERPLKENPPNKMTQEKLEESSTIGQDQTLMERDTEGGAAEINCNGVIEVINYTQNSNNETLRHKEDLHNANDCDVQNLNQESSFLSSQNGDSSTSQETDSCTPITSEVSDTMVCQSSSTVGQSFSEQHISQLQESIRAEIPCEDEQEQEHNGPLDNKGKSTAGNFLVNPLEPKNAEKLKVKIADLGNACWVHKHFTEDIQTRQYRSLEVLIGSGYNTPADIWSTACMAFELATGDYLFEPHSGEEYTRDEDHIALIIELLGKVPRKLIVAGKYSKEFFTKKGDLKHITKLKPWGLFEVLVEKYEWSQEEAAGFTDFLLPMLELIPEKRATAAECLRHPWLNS
Sequence of Cyclin-dependent kinase 17 (Homo sapiens) (Q00537 whole entry, looked up): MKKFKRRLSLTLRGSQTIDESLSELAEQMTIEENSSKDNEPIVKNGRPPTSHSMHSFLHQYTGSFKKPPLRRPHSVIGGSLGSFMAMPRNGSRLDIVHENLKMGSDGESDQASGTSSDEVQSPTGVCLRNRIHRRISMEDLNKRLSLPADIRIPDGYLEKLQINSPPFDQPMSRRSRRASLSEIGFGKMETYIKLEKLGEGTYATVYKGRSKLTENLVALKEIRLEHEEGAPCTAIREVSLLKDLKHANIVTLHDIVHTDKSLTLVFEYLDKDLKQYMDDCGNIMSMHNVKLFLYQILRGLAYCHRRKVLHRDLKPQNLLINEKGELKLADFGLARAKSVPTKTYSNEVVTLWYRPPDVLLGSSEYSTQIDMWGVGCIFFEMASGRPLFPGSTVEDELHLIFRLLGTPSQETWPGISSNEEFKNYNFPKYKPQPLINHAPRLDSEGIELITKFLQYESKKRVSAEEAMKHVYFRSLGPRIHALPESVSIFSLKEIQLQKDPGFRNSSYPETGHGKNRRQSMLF

CCN(CC)CCCCNc1ncc2cc(-c3cc(OC)cc(OC)c3)c(NC(=O)NC(C)(C)C)nc2n1
% of control (SRSF protein kinase 1): 100%

COCCN1CCC(c2cc(CN(C)C(=O)c3cccc(Oc4ccccc4)c3)ccn2)CC1
% activity ([1]; at 1 µM): > 95%
% activity ([1]; at 10 µM): > 90%

CCC(=O)N1CCN(c2ccc(-n3c(=O)ccc4cnc5ccc(-c6cnc7ccccc7c6)cc5c43)cc2C(F)(F)F)CC1
% of control [2]: 88%
% of control (Focal adhesion kinase 1): 14%

CN(C)CC#Cc1ccc2[nH]c3c(c2c1)-c1nc(N)ncc1CCC3
IC50 [3]: 66 nM

C=CC(=O)Nc1cccc(C(=O)Nc2ccc(Nc3cc(-c4[nH]c(SC)nc4C)ccn3)cc2)c1
% of control ([4]; at 1 µM): 81%
% of control ([4]; at 5 µM): 51%

Nc1cnc(N2CCc3cc(S(=O)(=O)Nc4c(F)cc(Cl)cc4F)cc(N4CCCC4=O)c32)nc1 [TP-020n]
% of control [5]: 100%
% of control [6]: 100%
% of control [7]: 98%

O=C(NOC[C@H](O)CO)c1ccc(F)c(F)c1Nc1ccc(I)cc1F
% of control [8]: 95%
% of control [9]: 77%

Cc1cc(CN)cc(C)c1-c1ncn(C)c1-c1cncn1C
dTM [10]: -0.53 K

CC[C@@H]1[C@H](F)C(=O)N[C@@H]1COc1nccc2cc(C(N)=O)c(OC)cc12 [ZIMLOVISERTIB]
% of inhibition [11]: 3.9%
% of inhibition [12]: 1.7%
% of inhibition ([13]; at 0.01 µM): -1.5%
% of inhibition ([13]; at 0.04 µM): -7.2%
% of inhibition ([13]; at 0.2 µM): -0.3%
% of inhibition ([13]; at 1 µM): -5.2%
% of inhibition ([13]; at 5 µM): -11.5%

COc1cc(C(=O)N2CC[C@@H](O)[C@@H](N)C2)cc2nc(-c3cc4ccccc4n3CC3CC3)n(C)c12
pXC50 [14]: < 4.5 M

CNC(=O)Nc1ccc(-c2nc(N3CC4CCC(C3)O4)c3cnn(C4CCC5(CC4)OCCO5)c3n2)cc1
% of control [15]: 90%
% of inhibition [16]: -1%

Cc1cc(F)c(C(=O)Nc2cccc(-c3nncn3C(C)C)n2)cc1-n1cnc(C2CC2)c1
% of control [17]: 100%

CN1Cc2nccc(-c3cn(C)nc3-c3ccc(F)cc3)c2C1=O
% of inhibition [18]: -3%

O[C@H]1CC[C@H](Nc2ncc3nc(Nc4c(F)cc(F)cc4F)n([C@H]4CCOC4)c3n2)CC1
% of control [19]: 100%

N#Cc1cccc(-c2c[nH]c3ncnc(N4CCOCC4)c23)c1
% of inhibition [20]: 39%
